This note sets out measurements from patent US9856216B2, “Compounds as TNIK, IKKε and TBK1 inhibitors and pharmaceutical composition comprising same” (GREEN CROSS CORPORATION, priority 2015, dated 2018).

pIC50: −log10 of the molar value.

The first assay deals with T1, TNIK (Homo sapiens, UniProt Q9UKE5).
T1 construct: purchased Promega V4158
T1 sequence (Q9UKE5 1-367 limits assumed): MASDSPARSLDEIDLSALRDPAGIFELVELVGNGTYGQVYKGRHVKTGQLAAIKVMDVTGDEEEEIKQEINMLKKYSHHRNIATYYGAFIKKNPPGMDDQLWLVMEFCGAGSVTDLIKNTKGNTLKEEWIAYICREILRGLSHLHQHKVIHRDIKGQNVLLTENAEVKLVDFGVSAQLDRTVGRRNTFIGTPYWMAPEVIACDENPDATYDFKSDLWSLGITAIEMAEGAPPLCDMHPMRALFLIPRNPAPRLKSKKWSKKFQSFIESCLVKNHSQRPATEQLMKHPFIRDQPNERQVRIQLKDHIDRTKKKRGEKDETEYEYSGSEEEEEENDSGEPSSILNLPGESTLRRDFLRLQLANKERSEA
Description: ADP-Glo Kinase Assay, inhibition activity on TNIK. It is filed as biochemical.
Settings: not given
How it is done: The inhibition activities on TNIK, IKKε and TBK1 were measured by a luminometer, TNIK/IKKε/TBK1 Kinase Enzyme System (Promega, Ca# V4158; Invitrogen, PR8031B, Promega, Ca# V3991) and ADP-Glo Kinase Assay using ADP-Glo™ Kinase Analysis Kit (Promega, Ca# V9101) and a kinase reaction buffer [40 mM Tris(pH 7.5), 20 mM MgCl2, 0.1 mg/mL BSA] in accordance with the manufacturer's protocol.
In the case of `O=C(Nc1ccc(Nc2ccccn2)c2c1C(=O)NC2)c1ccc(F)cc1` [Example 428, 4-Fluoro-N-(3-oxo-7-(pyridin-2-ylamino)isoindolin-4-yl) benzamide], the “TNIK (μM)” value is on record as “Insoluble”.

As to `O=C(Nc1ccc(-c2cc(Cl)ccc2Cl)c2c1C(=O)NC2)c1ccccc1` [Example 19, N-(7-(2,5-dichlorophenyl)-3-oxoisoindolin-4-yl)benzamide], the “TNIK (μM)” value is “Insoluble”.

With `COc1ccc(-c2ccc(NC(=O)c3ccccc3)c3c2CNC3=O)cn1` [Example 200, N-(7-(6-methoxypyridin-3-yl)-3-oxoisoindolin-4-yl)benzamide], the “TNIK (μM)” value was “Insoluble”.

The same assay, now with this note: read-out: TNIK.
`COc1ccc(-c2ccc(NC(=O)c3ccccc3)c3c2CNC3=O)cc1OC` [Example 176, N-(7-(3,4-dimethoxyphenyl)-3-oxoisoindolin-4-yl)benzamide]: the pIC50 was less than 4.70.

For the compound `O=C(Nc1ccc(-c2ccc3ncccc3c2)c2c1C(=O)NC2)c1ccc(F)cc1` [Example 214, 4-Fluoro-N-(3-oxo-7-(quinolin-6-yl)isoindolin-4-yl)benzamide], the pIC50 is less than 4.70.

With `O=C(Nc1ccc(Nc2ccccc2)c2c1C(=O)NC2)c1ccc(NC[C@@H](O)CN2CCCCC2)cc1` [Example 490, (R)-4-((2-hydroxy-3-(piperidin-1-yl)propyl)amino)-N-(3-oxo-7-(phenylamino)isoindolin-4-yl)benzamide], the pIC50 was 6.85.

For the compound `CN1CCN(c2ccc(C(=O)Nc3ccc(-c4ccccc4)c4c3C(=O)NC4)cc2)CC1` [Example 319, 4-(4-Methylpiperazin-1-yl)-N-(3-oxo-7-phenylisoindolin-4-yl)benzamide], the pIC50 is 5.57.

Regarding `O=C(Nc1ccc(-c2ccccc2)c2c1C(=O)NC2)c1ccc(Cl)cc1` [Example 143, 4-Chloro-N-(3-oxo-7-phenylisoindolin-4-yl)benzamide], the pIC50 was 5.96.

Consider `CC(=O)Nc1cccc(-c2ccc(NC(=O)c3ccccc3)c3c2CNC3=O)c1` [Example 169, N-(7-(3-acetamidophenyl)-3-oxoisoindolin-4-yl)benzamide], for which the pIC50 is 5.38.

On to `COCCNc1ccc(C(=O)Nc2ccc(Nc3ccccc3)c3c2C(=O)NC3)cc1` [Example 444, 4-((2-Methoxyethyl)amino)-N-(3-oxo-7-(phenylamino)isoindolin-4-yl)benzamide], for which the pIC50 was 6.96.

For the compound `COC(=O)c1ccccc1-c1ccc(NC(=O)c2ccccc2)c2c1CNC2=O` [Example 8, methyl 2-(7-benzamido-1-oxoisoindolin-4-yl)benzo ate], the pIC50 is less than 4.70.

As for `CSc1cccc(C(=O)Nc2ccc(-c3ccccc3)c3c2C(=O)NC3)c1` [Example 97, 3-(Methylthio)-N-(3-oxo-7-phenylisoindolin-4-yl)benzamide], the pIC50 was less than 4.70.

With `O=C(Nc1ccc(C(=O)N2CCCC2)c2c1C(=O)NC2)c1ccc(F)cc1` [Example 391, 4-Fluoro-N-(3-oxo-7-(pyrrolidine-1-carbonyl)isoindolin-4-yl) benzamide], the pIC50 is less than 4.70.

On to `O=C(Nc1ccc(Nc2ccccc2)c2c1C(=O)NC2)c1ccc(NCCN2CCCCCC2)cc1` [Example 492, 4-((2-(Azepan-1-yl)ethyl)amino)-N-(3-oxo-7-(phenylamino)isoindolin-4-yl)benzamide], for which the pIC50 is 6.74.

With `COc1cccc(-c2ccc(NC(=O)c3ccc(NCCN4CCCCCC4)cc3)c3c2CNC3=O)c1OC` [Example 350, 4-((2-(Azepan-1-yl)ethyl)amino)-N-(7-(2,3-dimethoxyphenyl)-3-oxoisoindolin-4-yl)benzamide], the pIC50 was 7.21.

In the case of `Nc1cccc(-c2ccc(NC(=O)c3ccc(NCCN4CCOCC4)cc3)c3c2CNC3=O)c1O` [Example 348, N-(7-(3-amino-2-hydroxyphenyl)-3-oxoisoindolin-4-yl)-4-((2-morpholinoethyl)amino)benzamide], the pIC50 is 5.50.

As for `COc1ccccc1C(=O)Nc1ccc(Nc2ccccc2)c2c1C(=O)NC2` [Example 432, 2-Methoxy-N-(3-oxo-7-(phenylamino)isoindolin-4-yl) benzamide], the pIC50 was 4.91.
